Earlier results as cited in patent publication US20140148399A1, “Compositions and methods for treating or ameliorating obesity or for reducing diabetic hypercholesterolemia” (UNIVERSITY OF TSUKUBA, priority 2012, published 2014).

Test system: 3T3-L1 cells

COc1cc(-c2oc3cc(O)cc(O)c3c(=O)c2O)ccc1O [Isorhamnetin]
adiponectin expression and secretion: reduces | C/EBP-α and PPAR-γ mRNA levels (3T3-L1 adipocyte differentiation): reducing | adipogenesis in 3T3-L1 cells (by inhibiting 3T3-L1 adipocyte differentiation): represses adipogenesis
